Where two headings read alike, the source gives them in different places.
Key:
[1] = comparative data, stated as obtained according to the same procedure; footnotes cite New J. Chem. 2019 and GFP congress 2022; cited from earlier work
[2] = in water at pH 7, estimated; cited from earlier work
[3] = Fluorescence titration with chlordecone, binding constant calculated with Bindfit; conditions: compounds of the invention; DMSO+2% H2O, 25 °C, host 5.0 µM or 0.5 µM, chlordecone 5.0 mM additions
Procedure: A solution of each hemicryptophane (2.5 mL, 5.0 µM for hosts 9 and 5 and 0.5 µM for host 8) in DMSO+2% H2O was transferred into the quartz cuvette. Successive additions of a concentrated chlordecone solution (5.0 mM in the same solvent mixture) were performed. The final volume of the solution was almost unchanged (2.5 mL) since very small volumes of chlordecone solution were added. The solutions were mixed and incubated for 30 s before irradiation at their maximum of excitation (274 nm, 297 nm and 349 nm for hosts 9, 5, 8 respectively) at 25 °C. The corresponding emission values during titration were then recorded. Fluorescence emission spectra are reproduced at Figures 1A (5), 1B (8), and 1C (9) and the relative fluorescence intensities as a function of the [chlordecone]/[hemicryptophane] are reproduced at Figures 2A (5), 2B (8), and 2C (9).
Binding constant (Ka) were calculated using Bindfit program and results are reproduced at Table 1 below, further including comparative data obtained according to the same procedure.

SMILES	Binding constant (Ka) [1]	also measured
COc1cc2c3cc1OCCOc1ccc(cc1)CNC(=O)CN1CC(=O)NCc4ccc(cc4)OCCOc4cc(c(cc4OC)C3)Cc3cc(OC)c(cc3C2)OCCOc2ccc(cc2)CNC(=O)C1	[drawing 21] Ka = 126 L/mol ± 3.7%	
COc1cc2c3cc1OCCOc1ccc(cc1)CNCCN1CCNCc4ccc(cc4)OCCOc4cc(c(cc4OC)C3)Cc3cc(OC)c(cc3C2)OCCOc2ccc(cc2)CNCC1	[drawing 22] Ka = 2.1 x 10^4 L/mol ± 3.4%	
COc1cc2c3cc1OCCOc1ccc4cc(ccc4c1)CNCCN1CCNCc4ccc5cc(ccc5c4)OCCOc4cc(c(cc4OC)C3)Cc3cc(OC)c(cc3C2)OCCOc2ccc3cc(ccc3c2)CNCC1	[drawing 23] Ka = 6.4 x 10^3 L/mol ± 4.4%	
C(#Cc1cc2c3cc1OCCOc1ccc(cc1)CNCCN1CCNCc4ccc(cc4)OCCOc4cc(c(cc4C#Cc4ccccc4)C3)Cc3cc(C#Cc4ccccc4)c(cc3C2)OCCOc2ccc(cc2)CNCC1)c1ccccc1	[drawing 25] Ka = 1.4 x 10^5 L/mol ± 12%	
COc1cc2c3cc1OCCOc1ccc(cc1-c1ccccc1)CNCCN1CCNCc4ccc(c(-c5ccccc5)c4)OCCOc4cc(c(cc4OC)C3)Cc3cc(OC)c(cc3C2)OCCOc2ccc(cc2-c2ccccc2)CNCC1	[drawing 26] Ka = 1.9 x 10^4 L/mol ± 75%	
COc1cc2c3cc1OCCOc1ccc(cc1)CN(S(=O)(=O)c1cccc4c(N(C)C)cccc14)CCN1CCN(S(=O)(=O)c4cccc5c(N(C)C)cccc45)Cc4ccc(cc4)OCCOc4cc(c(cc4OC)C3)Cc3cc(OC)c(cc3C2)OCCOc2ccc(cc2)CN(S(=O)(=O)c2cccc3c(N(C)C)cccc23)CC1	[drawing 27] Ka = 3.0 x 10^3 L/mol ± 6.9%	
O=C1C2(Cl)C3(Cl)C4(Cl)C(Cl)(Cl)C5(Cl)C3(Cl)C1(Cl)C5(Cl)C24Cl (centres unmarked) [Chlordecone]		solubility [2]: around 2 mg/L
COc1cc2c3cc1OCCNCc1cc(-c4ccccc4)ccc1OCc1cc4cc(c1)COc1ccc(-c5ccccc5)cc1CNCCOc1cc(c(cc1OC)Cc1cc(c(OC)cc1C3)OCCNCc1cc(-c3ccccc3)ccc1OC4)C2 [compound 9]		Binding constant (Ka) [3]: [drawing 20] Ka = 4.6 x 10^5 L/mol ± 17%
